Reference: PubChem BioAssay AID1963961 (Molecular Pharmacology Branch, DTP, NCI, 2024)

Test system: K98450-129-R-PDC multicell spheroids, viability
Assay: Anticancer human tumor K98450-129-R-PDC patient-derived colon adenocarcinoma cell line growth inhibition [PI3K]
Details: for IC50: curve of first compound; for viability, T/C: stronger effect = lower value
How it was run: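 Targeted small molecules plus PI3K inhibitors, half-log dose series from Cmax (default top 10 microM), were applied to heterotypic spheroids of cancer cells with HUVEC and MSCs. Viability indicated growth inhibition.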

[1] = second compound 0.0316 µM, first compound 0.0316 µM
[2] = second compound 0.0316 µM, first compound 0.1 µM
[3] = second compound 0.0316 µM, first compound 0.316 µM
[4] = second compound 0.0316 µM, first compound 1 µM
[5] = second compound 0.0316 µM, first compound 3.16 µM
[6] = second compound 0.0316 µM, first compound 10 µM
[7] = second compound 0.1 µM, first compound 0.0316 µM
[8] = second compound 0.1 µM, first compound 0.1 µM
[9] = second compound 0.1 µM, first compound 0.316 µM
[10] = second compound 0.1 µM, first compound 1 µM
[11] = second compound 0.1 µM, first compound 3.16 µM
[12] = second compound 0.1 µM, first compound 10 µM
[13] = second compound 0.316 µM, first compound 0.0316 µM
[14] = second compound 0.316 µM, first compound 0.1 µM
[15] = second compound 0.316 µM, first compound 0.316 µM
[16] = second compound 0.316 µM, first compound 1 µM
[17] = second compound 0.316 µM, first compound 3.16 µM
[18] = second compound 0.316 µM, first compound 10 µM
[19] = second compound 1 µM, first compound 0.0316 µM
[20] = second compound 1 µM, first compound 0.1 µM
[21] = second compound 1 µM, first compound 0.316 µM
[22] = second compound 1 µM, first compound 1 µM
[23] = second compound 1 µM, first compound 3.16 µM
[24] = second compound 1 µM, first compound 10 µM
[25] = second compound 3.16 µM, first compound 0.0316 µM
[26] = second compound 3.16 µM, first compound 0.1 µM
[27] = second compound 3.16 µM, first compound 0.316 µM
[28] = second compound 3.16 µM, first compound 1 µM
[29] = second compound 3.16 µM, first compound 3.16 µM
[30] = second compound 3.16 µM, first compound 10 µM
[31] = second compound 10 µM, first compound 0.0316 µM
[32] = second compound 10 µM, first compound 0.1 µM
[33] = second compound 10 µM, first compound 0.316 µM
[34] = second compound 10 µM, first compound 1 µM
[35] = second compound 10 µM, first compound 3.16 µM
[36] = second compound 10 µM, first compound 10 µM
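Also: spheroids exposed to agents for seven days before read-out.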

Compound: C#Cc1c(F)ccc2cc(O)cc(-c3ncc4c(N5CC6CCC(C5)N6)nc(OCC56CCCN5CC(F)C6)nc4c3F)c12 (centres undefined) + CC(Nc1ncnc2nc[nH]c12)c1cc2cccc(Cl)c2c(=O)n1-c1ccccc1
- IC50 (second compound 0.0316 µM): > 10 µM
- IC50 (second compound 0.1 µM): > 10 µM
- IC50 (second compound 0.316 µM): > 10 µM
- IC50 (second compound 1 µM): > 10 µM
- IC50 (second compound 3.16 µM): > 10 µM
- IC50 (second compound 10 µM): > 10 µM
- viability, T/C [1]: 120%
- viability, T/C [2]: 101%
- viability, T/C [3]: 99.1%
- viability, T/C [4]: 91.7%
- viability, T/C [5]: 90.9%
- viability, T/C [6]: 92.9%
- viability, T/C [7]: 116%
- viability, T/C [8]: 98.7%
- viability, T/C [9]: 96.4%
- viability, T/C [10]: 90.1%
- viability, T/C [11]: 98.2%
- viability, T/C [12]: 90.6%
- viability, T/C [13]: 110%
- viability, T/C [14]: 106%
- viability, T/C [15]: 91.1%
- viability, T/C [16]: 100%
- viability, T/C [17]: 101%
- viability, T/C [18]: 96.2%
- viability, T/C [19]: 98.9%
- viability, T/C [20]: 91.6%
- viability, T/C [21]: 104%
- viability, T/C [22]: 84.1%
- viability, T/C [23]: 115%
- viability, T/C [24]: 77.5%
- viability, T/C [25]: 89.4%
- viability, T/C [26]: 89.9%
- viability, T/C [27]: 93.5%
- viability, T/C [28]: 85.1%
- viability, T/C [29]: 92%
- viability, T/C [30]: 87.4%
- viability, T/C [31]: 87.5%
- viability, T/C [32]: 98.2%
- viability, T/C [33]: 88.2%
- viability, T/C [34]: 91.3%
- viability, T/C [35]: 99.9%
- viability, T/C [36]: 75.1%

Compound: CC1(C)CCC(Nc2ncc(C(F)(F)F)c(-c3c[nH]c4c(P(C)(C)=O)c(C#N)ccc34)n2)CN1 (centres undefined) + CC(Nc1ncnc2nc[nH]c12)c1cc2cccc(Cl)c2c(=O)n1-c1ccccc1
- IC50 (second compound 0.0316 µM): > 10 µM
- IC50 (second compound 0.1 µM): 7.06 µM
- IC50 (second compound 0.316 µM): > 10 µM
- IC50 (second compound 1 µM): 4.51 µM
- IC50 (second compound 3.16 µM): 5.35 µM
- IC50 (second compound 10 µM): 2.33 µM
- viability, T/C [1]: 104%
- viability, T/C [2]: 85.5%
- viability, T/C [3]: 67.9%
- viability, T/C [4]: 67.4%
- viability, T/C [5]: 66.2%
- viability, T/C [6]: 44.5%
- viability, T/C [7]: 139%
- viability, T/C [8]: 108%
- viability, T/C [9]: 69.2%
- viability, T/C [10]: 68.7%
- viability, T/C [11]: 78.7%
- viability, T/C [12]: 45.2%
- viability, T/C [13]: 101%
- viability, T/C [14]: 98.4%
- viability, T/C [15]: 75.3%
- viability, T/C [16]: 58.6%
- viability, T/C [17]: 76.8%
- viability, T/C [18]: 45%
- viability, T/C [19]: 107%
- viability, T/C [20]: 93.6%
- viability, T/C [21]: 74.7%
- viability, T/C [22]: 64.6%
- viability, T/C [23]: 62.9%
- viability, T/C [24]: 36.9%
- viability, T/C [25]: 101%
- viability, T/C [26]: 82.4%
- viability, T/C [27]: 63.8%
- viability, T/C [28]: 70.9%
- viability, T/C [29]: 65.1%
- viability, T/C [30]: 36.7%
- viability, T/C [31]: 94.9%
- viability, T/C [32]: 88.5%
- viability, T/C [33]: 63.3%
- viability, T/C [34]: 62%
- viability, T/C [35]: 59.6%
- viability, T/C [36]: 21.6%
